Columns and labels:
Puccinia recondita [1] = test: Controlling effect on wheat brown rust (leaf rust) by foliage spray treatment (Tests 1 and 2); format: in vivo; details: foliage spray 0.8 mg/L, 1,000 L/ha, 11 days after inoculation
Experimental: The wheat plants had been grown in square plastic pots (6 cm×6 cm). The suspensions were left to dry, and inoculated with spores of Puccinia recondita (adjusted at 200 spores per field of vision, Gramin S was added at 60 ppm) by spraying, and kept at 25° C. in a high humidity environment for 48 hours. After that, the plants were kept in a greenhouse. 11 days after the inoculation, the lesion degree of the wheat leaf rust was examined in accordance with the criteria shown in Table 4, and the protective values were calculated by the following equation. Protective value (%)=(1−Average lesion degree in sprayed plot/Average lesion degree in unsprayed plot)×100
The wheat plants had been grown in square plastic pots (6 cm×6 cm). The leaves were air-dried, and inoculated with spores of Puccinia recondita (adjusted at 200 spores per field of vision, Gramin S was added at 60 ppm) by spraying, and kept at 25° C. in a high humidity environment for 48 hours. After that, the plants were kept in a greenhouse. 11 days after the inoculation, the lesion degree of the wheat leaf rust was examined, and the protective values were calculated as were in Experiment Example 2.

Puccinia recondita [2] = test: Efficacy of seed treatment on wheat brown rust; format: in vivo; details: wheat seed treatment 20 g ai/100 kg seeds, 12 days after inoculation
Experimental: A pot experiment was performed to evaluate the efficacy of seed treatment in controlling wheat leaf rust. Compound (1-1a) and Compound (1-2a), each of which was dissolved in DMSO to make up such a concentration that the seeds would be treated in treatment amount of 20 g ai/100 kg seeds, were each applied to wheat seeds in a vial, and thereafter 8 wheat seeds were sowed on an 80-cm^2 pot. The pot was kept in a greenhouse with water supplied to its bottom. 21 days after the sowing, the wheat seeds were inoculated with Puccinia recondita, and kept in a wet box for 2 days. After that, the pot was again kept in the greenhouse with water supplied to its bottom. 12 days after the inoculation, the percentage of affected area was found, and the protective value was calculated by the following equation. Protective value (%)=(1−(Percentage of affected area in treated region/Percentage of affected area in untreated region))×100

Phaeosphaeria nodorum = test: Test 1 for antifungal effect, plate medium: P.n; format: cell-based; details: PDA plate medium
Experimental: (§1) Compound (1-1a) or Compound (1-2a) was dissolved in dimethyl sulfoxide, and the resulting solution was added to a PDA medium (potato dextrose-agar medium) at about 60° C. The medium and the solution were mixed thoroughly in a conical flask, poured into a petri dish, and allowed to solidify. In this way, a plate medium containing Compound (1-1a) or Compound (1-2a) at a certain concentration was prepared.
(§2) Meanwhile, test microorganisms cultured on a plate medium in advance were cut out with the use of a cork borer 4 mm in diameter, and were inoculated onto the compound-containing plate medium. After the inoculation, the microorganisms were cultured at their optimum growth temperatures (for example, refer to LIST OF CULTURES 1996 microorganisms 10th edition, Institute for Fermentation (foundation)) for 1 day to 7 days, and their growth was determined by measuring the diameter of their flora. The extent of growth of the microorganisms on the compound-containing plate medium was compared with that of microorganisms on a plate medium where no compound was added, and mycelial growth inhibition rate was calculated by the following equation: R=100(dc−dt)/dc where R is mycelial growth inhibition rate (%), dc is the flora diameter in untreated plate, and dt is the flora diameter in plate treated with the compound.
(§3) A larger antifungal index indicates a better antifungal effect.

Gaeumannomyces graminis = test: Test 1 for antifungal effect, plate medium: G.g; format: cell-based; details: PDA plate medium
Experimental: as §1, §2, §3

Gibberella fujikuroi = test: Test 1 for antifungal effect, plate medium: G.f; format: cell-based; details: PDA plate medium
Experimental: as §1, §2, §3

Sclerotinia sclerotiorum = test: Test 1 for antifungal effect, plate medium: S.s; format: cell-based; details: PDA plate medium
Experimental: as §1, §2, §3

Glomerella cingurata = test: Test 1 for antifungal effect, plate medium: G.c; format: cell-based; details: PDA plate medium
Experimental: as §1, §2, §3

Ustilago nuda = test: Test 2 for antifungal effect, plate medium: U.n; format: cell-based; details: PDA plate medium
Experimental: as §1, with “(1-1b)” for “(1-1a)”, “(1-2b)” for “(1-2a)”
(§4) Meanwhile, test microorganisms cultured on a plate medium in advance were cut out with the use of a cork borer 4 mm in diameter, and were inoculated onto the compound-containing plate medium. After the inoculation, the pathogens were cultured at their optimum growth temperatures (for example, refer to LIST OF CULTURES 1996 microorganisms 10th edition, Institute for Fermentation (foundation)) for 1 day to 7 days, and their growth was determined by measuring the diameter of their flora. The extent of growth of the pathogens on the compound-containing plate medium was compared with that of pathogens on a plate medium where no compound was added, and mycelial growth inhibition rate was calculated as in Experiment Example 10. Note that, in Experiment Example 11, controls used in the antifungal effect tests are Compound (1-1a) and Compound (1-2a) instead of Compound (1-1b) and Compound (1-2b), respectively.
(§5) The results were rated on a 1-to-5 scale as in Experiment Example 10.

Penicillium italicum = test: Test 2 for antifungal effect, plate medium: P.i; format: cell-based; details: PDA plate medium
Experimental: as §1, with “(1-1b)” for “(1-1a)”, “(1-2b)” for “(1-2a)”
as §4, §5

In the case of `CC1(CCl)CCC(Cc2ccc(Cl)cc2)C1(O)Cn1cncn1` (single isomer, unassigned) [Compound (1-1b), (1,2-cis, 1,5-cis)-5-(4-chlorobenzyl)-2-chloromethyl-2-methyl-1-(1H-1,2,4-triazole-1-ylmethyl)cyclopentanol], the “Protective value (%)” value (Puccinia recondita [1]) is reported as 29%, the “Protective value (%)” value (Puccinia recondita [2]) is reported as 63% and the “Antifungal index (mycelial growth inhibition rate)” value (Phaeosphaeria nodorum; 0.16 mg/L) is reported as 2 (Less than 70% but not less than 60%). The “Antifungal index (mycelial growth inhibition rate)” value (Phaeosphaeria nodorum; 0.31 mg/L) was 2 (Less than 70% but not less than 60%), the “Antifungal index (mycelial growth inhibition rate)” value (Phaeosphaeria nodorum; 0.63 mg/L) was 2 (Less than 70% but not less than 60%) and the “Antifungal index (mycelial growth inhibition rate)” value (Phaeosphaeria nodorum; 1.25 mg/L) was 3 (Less than 80% but not less than 70%). The “Antifungal index (mycelial growth inhibition rate)” value (Phaeosphaeria nodorum; 2.50 mg/L) was 5 (90% or greater), the “Antifungal index (mycelial growth inhibition rate)” value (Gaeumannomyces graminis; 0.16 mg/L) was 1 (Less than 60%) and the “Antifungal index (mycelial growth inhibition rate)” value (Gaeumannomyces graminis; 0.31 mg/L) was 1 (Less than 60%). For the same compound, the “Antifungal index (mycelial growth inhibition rate)” value (Gaeumannomyces graminis; 0.63 mg/L) was 2 (Less than 70% but not less than 60%), the “Antifungal index (mycelial growth inhibition rate)” value (Gaeumannomyces graminis; 1.25 mg/L) was 5 (90% or greater) and the “Antifungal index (mycelial growth inhibition rate)” value (Gaeumannomyces graminis; 2.50 mg/L) was 5 (90% or greater). The “Antifungal index (mycelial growth inhibition rate)” value (Gibberella fujikuroi; 0.16 mg/L) was 3 (Less than 80% but not less than 70%), the “Antifungal index (mycelial growth inhibition rate)” value (Gibberella fujikuroi; 0.31 mg/L) was 4 (Less than 90% but not less than 80%) and the “Antifungal index (mycelial growth inhibition rate)” value (Gibberella fujikuroi; 0.63 mg/L) was 5 (90% or greater). The “Antifungal index (mycelial growth inhibition rate)” value (Gibberella fujikuroi; 1.25 mg/L) was 5 (90% or greater), the “Antifungal index (mycelial growth inhibition rate)” value (Gibberella fujikuroi; 2.50 mg/L) was 5 (90% or greater) and the “Antifungal index (mycelial growth inhibition rate)” value (Sclerotinia sclerotiorum; 0.16 mg/L) was 3 (Less than 80% but not less than 70%). The “Antifungal index (mycelial growth inhibition rate)” value (Sclerotinia sclerotiorum; 0.31 mg/L) was 5 (90% or greater), the “Antifungal index (mycelial growth inhibition rate)” value (Sclerotinia sclerotiorum; 0.63 mg/L) was 5 (90% or greater) and the “Antifungal index (mycelial growth inhibition rate)” value (Sclerotinia sclerotiorum; 1.25 mg/L) was 5 (90% or greater). For the same compound, the “Antifungal index (mycelial growth inhibition rate)” value (Sclerotinia sclerotiorum; 2.50 mg/L) was 5 (90% or greater), the “Antifungal index (mycelial growth inhibition rate)” value (Glomerella cingurata; 0.16 mg/L) was 2 (Less than 70% but not less than 60%) and the “Antifungal index (mycelial growth inhibition rate)” value (Glomerella cingurata; 0.31 mg/L) was 4 (Less than 90% but not less than 80%). For the same compound, the “Antifungal index (mycelial growth inhibition rate)” value (Glomerella cingurata; 0.63 mg/L) was 5 (90% or greater), the “Antifungal index (mycelial growth inhibition rate)” value (Glomerella cingurata; 1.25 mg/L) was 5 (90% or greater) and the “Antifungal index (mycelial growth inhibition rate)” value (Glomerella cingurata; 2.50 mg/L) was 5 (90% or greater). For the same compound, the “Antifungal index (mycelial growth inhibition rate)” value (Ustilago nuda; 0.04 mg/L) was 1 (Less than 60%), the “Antifungal index (mycelial growth inhibition rate)” value (Ustilago nuda; 0.08 mg/L) was 1 (Less than 60%) and the “Antifungal index (mycelial growth inhibition rate)” value (Ustilago nuda; 0.16 mg/L) was 2 (Less than 70% but not less than 60%). The “Antifungal index (mycelial growth inhibition rate)” value (Ustilago nuda; 0.31 mg/L) was 3 (Less than 80% but not less than 70%), the “Antifungal index (mycelial growth inhibition rate)” value (Ustilago nuda; 0.63 mg/L) was 4 (Less than 90% but not less than 80%) and the “Antifungal index (mycelial growth inhibition rate)” value (Ustilago nuda; 1.25 mg/L) was 5 (90% or greater). The “Antifungal index (mycelial growth inhibition rate)” value (Penicillium italicum; 0.04 mg/L) was 3 (Less than 80% but not less than 70%), the “Antifungal index (mycelial growth inhibition rate)” value (Penicillium italicum; 0.08 mg/L) was 4 (Less than 90% but not less than 80%) and the “Antifungal index (mycelial growth inhibition rate)” value (Penicillium italicum; 0.16 mg/L) was 5 (90% or greater). For the same compound, the “Antifungal index (mycelial growth inhibition rate)” value (Penicillium italicum; 0.31 mg/L) was 5 (90% or greater), the “Antifungal index (mycelial growth inhibition rate)” value (Penicillium italicum; 0.63 mg/L) was 5 (90% or greater) and the “Antifungal index (mycelial growth inhibition rate)” value (Penicillium italicum; 1.25 mg/L) was 5 (90% or greater).
